In patent publication US20070129344A1, “Bicyclic 6-alkylidene-penem beta-lactamase inhibitors and beta-lactam antibiotic combination: a broad spectrum antibiotic” (priority 2005, published 2007):

Assays:
[1] = tested on: S. marcescens GC 1781 (Sme-1 + AmpC); assay: MIC microbroth dilution; β-lactamase class A (Cb'ase), C; format: cell-based; conditions: Cefepime + 4 ug/ml Compound 1
Experimental: (§1) The in vitro activities of the antibiotics were determined by the microbroth dilution method as recommended by the National Committee for Clinical Laboratory Standards (NCCLS). (NCCLS. 2000. Methods for Dilution Antimicrobial Susceptibility Tests for Bacteria That Grow Aerobically; Approved Standards: M7-A5, vol. 19. National Committee for Clinical Laboratory Standards, Villanova, Pa.). Mueller-Hinton II broth (MHBII)(BBL Cockeysville, Md.), was used for the testing procedure. […]. The plates were incubated for 18-22 hours at 35° C. in ambient air.

[2] = tested on: E. coli GAR 5929 TEM, OXA, Act-1, CTX (By PCR only); assay: MIC microbroth dilution; β-lactamase class A, C, D; format: cell-based; conditions: Cefepime + 4 ug/ml Compound 1
Experimental: as §1

[3] = tested on: E. coli GC 4971 OXA-1, TEM-1; assay: MIC microbroth dilution; β-lactamase class A, D; format: cell-based; conditions: Cefepime + 4 ug/ml Compound 1
Experimental: as §1

[4] = tested on: E. coli GAR 6649 TEM, OXA, CTX (By PCR only); assay: MIC microbroth dilution; β-lactamase class A, A (ESBL), D; format: cell-based; conditions: Cefepime + 4 ug/ml Compound 1
Experimental: as §1

[5] = tested on: S. marcescens GC 4132 (AmpC); assay: MIC microbroth dilution; β-lactamase class C; format: cell-based; conditions: Cefepime + 4 ug/ml Compound 1
Experimental: as §1

[6] = tested on: P. aeruginosa ATCC 27853 AmpC-inducable; assay: MIC microbroth dilution; β-lactamase class C; format: cell-based; conditions: Cefepime + 4 ug/ml Compound 1
Experimental: as §1

[7] = tested on: P. aeruginosa GC 1763 AmpC-inducible; assay: MIC microbroth dilution; β-lactamase class C; format: cell-based; conditions: Cefepime + 4 ug/ml Compound 1
Experimental: as §1

[8] = tested on: K. pneumoniae GC 7824 Fox 5; assay: MIC microbroth dilution; β-lactamase class C; format: cell-based; conditions: Cefepime + 4 ug/ml Compound 1
Experimental: as §1

[9] = tested on: E. cloacae GC 6991 (AmpC); assay: MIC microbroth dilution; β-lactamase class C; format: cell-based; conditions: Cefepime + 4 ug/ml Compound 1
Experimental: as §1

[10] = tested on: K. pneumoniae GC 7822 Act 1; assay: MIC microbroth dilution; β-lactamase class C; format: cell-based; conditions: Cefepime + 4 ug/ml Compound 1
Experimental: as §1

[11] = tested on: S. marcescens GC 4145 Inducible AmpC; assay: MIC microbroth dilution; β-lactamase class C; format: cell-based; conditions: Cefepime + 4 ug/ml Compound 1
Experimental: as §1

[12] = tested on: K. pn GC 6657 (TEM-1 + SHV-27); assay: MIC microbroth dilution; β-lactamase class A, A (ESBL); format: cell-based, K. pneumoniae; conditions: Cefepime + 4 ug/ml Compound 1
Experimental: as §1

[13] = tested on: K. pn GC 1963 (TEM-10 + SHV-1 + SHV-ESBL); assay: as above; format: cell-based, K. pneumoniae; conditions: Cefepime + 4 ug/ml Compound 1
Experimental: as §1

[14] = tested on: K. pn GC 6494 (TEM-1 + SHV-5); assay: as above; format: cell-based, K. pneumoniae; conditions: Cefepime + 4 ug/ml Compound 1
Experimental: as §1

[15] = tested on: K. pn GC 1554 (TEM-1 + TEM-26 + SHV-1); assay: as above; format: cell-based, K. pneumoniae; conditions: Cefepime + 4 ug/ml Compound 1
Experimental: as §1

[16] = tested on: K. pn GC 3057 (CAZ-R; P/T-R); assay: as above; format: cell-based, K. pneumoniae; conditions: Cefepime + 4 ug/ml Compound 1
Experimental: as §1

[17] = tested on: K. pn GC 6488 (TEM-1 + SHV-5 + SHV-7); assay: as above; format: cell-based, K. pneumoniae; conditions: Cefepime + 4 ug/ml Compound 1
Experimental: as §1

[18] = tested on: K. pn GC 6651 (TEM-1 + SHV-1 + SHV-5); assay: as above; format: cell-based, K. pneumoniae; conditions: Cefepime + 4 ug/ml Compound 1
Experimental: as §1

[19] = tested on: K. pn GC 1507 (TEM-9 + SHV-1); assay: as above; format: cell-based, K. pneumoniae; conditions: Cefepime + 4 ug/ml Compound 1
Experimental: as §1

[20] = tested on: K. pn GC 2006 (TEM-10 + SHV-1); assay: as above; format: cell-based, K. pneumoniae; conditions: Cefepime + 4 ug/ml Compound 1
Experimental: as §1

E. coli GC 2804 (imp) = assay: MIC microbroth dilution; β-lactamase class none; format: cell-based; conditions: Cefepime + 4 ug/ml Compound 1
Experimental: as §1

E. coli GC 2844 (none) = assay: MIC microbroth dilution; β-lactamase class none; format: cell-based; conditions: Cefepime + 4 ug/ml Compound 1
Experimental: as §1

[21] = tested on: E. coli ATCC 25922 (none); assay: MIC microbroth dilution; β-lactamase class none; format: cell-based; conditions: E. coli ATCC 25922; Cefepime + 4 ug/ml Compound 1
Experimental: as §1

E. coli GC 1480 OXA-1 = assay: MIC microbroth dilution; β-lactamase class D; format: cell-based; conditions: E. coli GC 1480; Cefepime + 4 ug/ml Compound 1
Experimental: as §1

E. coli GC 1807 OXA-7 = assay: MIC microbroth dilution; β-lactamase class D; format: cell-based; conditions: E. coli GC 1807; Cefepime + 4 ug/ml Compound 1
Experimental: as §1

[22] = tested on: K. pn GC 2391 (pl 5.4; 5.6; 7.6; 8.7 B-lactamases); assay: MIC microbroth dilution; β-lactamase class A, A (ESBL), C; format: cell-based, K. pneumoniae; conditions: Cefepime + 4 ug/ml Compound 1
Experimental: as §1

[23] = tested on: E. aerogenes GC 7039 TEM-4, Amp C inducable; assay: MIC microbroth dilution; β-lactamase class A (ESBL), C; format: cell-based; conditions: Cefepime + 4 ug/ml Compound 1
Experimental: as §1

[24] = tested on: E. cloacae GC 7065 TEM-26, SHV-12 Amp C inducable; assay: as above; format: cell-based; conditions: Cefepime + 4 ug/ml Compound 1
Experimental: as §1

[25] = tested on: M. morganii GC 1617 TEM-10 + inducible AmpC; assay: as above; format: cell-based; conditions: Cefepime + 4 ug/ml Compound 1
Experimental: as §1

[26] = tested on: E. cloacae GC 7052 SHV-5, Amp C inducable; assay: as above; format: cell-based; conditions: Cefepime + 4 ug/ml Compound 1
Experimental: as §1

[27] = tested on: E. aerogenes GC 7036 TEM-24, Amp C inducable; assay: as above; format: cell-based; conditions: Cefepime + 4 ug/ml Compound 1
Experimental: as §1

[28] = tested on: C. freundii GC 4171 TEM-1 + InducibleAmpC; assay: MIC microbroth dilution; β-lactamase class A, C; format: cell-based; conditions: C. freundii GC 4171; Cefepime + 4 ug/ml Compound 1
Experimental: as §1

E. coli GC 2920 (IRT-2) = assay: MIC microbroth dilution; β-lactamase class A (IRT); format: cell-based; conditions: Cefepime + 4 ug/ml Compound 1
Experimental: as §1

`O=C([O-])C1=CS[C@@H]2/C(=C\c3cn4c(n3)CCC4)C(=O)N12.[Na+]` [Compound 1, (5R), (6Z)-6-(6,7-Dihydro-5H-pyrrolo[1,2-a]imidazol-2-ylmethylene)-7-oxo-4-thia-1-aza-bicyclo[3.2.0]hept-2-ene-2-carboxylic Acid, Sodium Salt] showed an MIC [1] of 0.12 µg/mL, an MIC [2] of 0.06 µg/mL and an MIC [3] of 0.12 µg/mL. The MIC [4] was 1 µg/mL, the MIC [5] was 0.12 µg/mL and the MIC [6] was 2 µg/mL. The MIC [7] was 1 µg/mL, the MIC [8] was 0.12 µg/mL and the MIC [9] was 0.50 µg/mL. It also gave an MIC [10] of 0.50 µg/mL, an MIC [11] of 0.12 µg/mL and an MIC [12] of 0.12 µg/mL. For the same molecule, the MIC [13] was 0.12 µg/mL, the MIC [14] was 0.12 µg/mL and the MIC [15] was 0.25 µg/mL. For the same molecule, the MIC [16] was 0.12 µg/mL, the MIC [17] was 1 µg/mL and the MIC [18] was 0.12 µg/mL. The MIC [19] was 0.12 µg/mL, the MIC [20] was 0.12 µg/mL and the MIC (E. coli GC 2804 (imp)) was less than 0.015 µg/mL. It also gave an MIC (E. coli GC 2844 (none)) of 0.06 µg/mL, an MIC [21] of 0.03 µg/mL and an MIC (E. coli GC 1480 OXA-1) of 0.06 µg/mL. For the same molecule, the MIC (E. coli GC 1807 OXA-7) was less than 0.015 µg/mL, the MIC [22] was 0.50 µg/mL and the MIC [23] was 0.03 µg/mL. It also gave an MIC [24] of 0.06 µg/mL, an MIC [25] of 0.12 µg/mL and an MIC [26] of 1 µg/mL. For the same molecule, the MIC [27] was 0.06 µg/mL, the MIC [28] was 0.06 µg/mL and the MIC (E. coli GC 2920 (IRT-2)) was 0.06 µg/mL.
